According to patent US9029405B2, “5-(biphenyl-4-yl)-3-phenyl-1,2,4-oxadiazolyl derivatives as ligands on the sphingosine 1-phosphate(SIP)receptors” (Merck Serono S.A., priority 2010, dated 2015):
Where a name gives a salt, the structure may show the parent alone. Read-outs that look alike come from different tables or passages of the source.

Key:
S1P1 [1] = target: T1, S1P1 (Homo sapiens, UniProt P21453); assay: Receptor binding assay, [33P]sphingosine 1-phosphate competition, membranes of CHO cells expressing S1P1
Experimental: (§1) Membranes were prepared from CHO cells expressing S1P1 or S1P3 for use in ligand binding studies. Cells were suspended in 50 mM TRIS, pH 7.4, 2 mM EDTA, 250 mM Sucrose (buffer A) and 1× Complete protease inhibitor cocktail (Roche), and disrupted at 4° C. by N2 decompression using a cell disruption bomb (Parr Instrument). Following centrifugation at 1000 RPM for 10 min at 4° C., the supernatant was diluted (2×) in buffer A and centrifuged again at 19000 RPM for 75 min at 4° C. The pellet was then suspended in 10 mM HEPES, pH 7.4, 1 mM EDTA, 250 mM Sucrose (Buffer B), and 1× Complete EDTA-free protease inhibitor cocktail and homogenized using a potter. Membranes were flash frozen in liquid N2 and stored at −80° C.
(§2) [33P]sphingosine 1-phosphate (3000 Ci/mmol; American Radiolabeled Chemicals, Inc.) was added to test compounds in 20% DMSO by competition. Membranes and WGA SPA beads (GE Healthcare) were added to give a final volume of 100 μl in 96-well plates or 50 μl in 384-well plates with assay concentrations of 30 pM or 15 pM [33P]sphingosine 1-phosphate (respectively for S1P1 or S1P3), 50 mM HEPES, pH 7.5, 5 mM MgCl2, 100 mM NaCl, 0.4% fatty acid-free BSA, 1-5 μg/well of proteins in 96-well plates vs 0.6-1 μg/well of proteins in 384-well plates and 100 μg/well of WGA SPA beads in 96-well plates vs 75 μg/well of WGA SPA beads in 384-well plates. Binding was performed for 60 min at RT on a shaker and bound radioactivity was measured on a PerkinElmer 1450 MicroBeta counter. Triplicate samples were averaged and normalized as percentage of inhibition relative to total binding (only DMSO in well) and non specific binding (1000-fold excess of unlabeled S1P). Binding data were analyzed using the GraphPad Prism program or Genedata software.
(§3) The “potency” or the “activity” of the compounds is determined by the Ki values as evaluated in one of the above described binding assay, 96 or 384 well plates.
Target sequence in this assay (P21453 whole entry, species assumed): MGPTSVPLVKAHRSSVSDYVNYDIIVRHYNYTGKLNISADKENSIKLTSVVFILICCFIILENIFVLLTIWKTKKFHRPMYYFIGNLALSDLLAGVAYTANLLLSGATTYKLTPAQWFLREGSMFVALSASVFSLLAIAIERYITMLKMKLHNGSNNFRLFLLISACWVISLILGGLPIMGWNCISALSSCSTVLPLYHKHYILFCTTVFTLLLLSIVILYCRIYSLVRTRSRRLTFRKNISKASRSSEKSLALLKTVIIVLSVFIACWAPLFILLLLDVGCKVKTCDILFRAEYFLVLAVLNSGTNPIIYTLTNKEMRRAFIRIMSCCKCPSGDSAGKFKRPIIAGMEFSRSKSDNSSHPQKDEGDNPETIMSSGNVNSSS

S1P1 [2] = target: T1, S1P1; assay: S1P1 internalization assay in S1P1-U2OS cells (cell imaging); format: cell-based; set-up: host or cells: U2OS (human bone osteosarcoma epithelial cells); details: U2OS cells expressing S1P1-EGFP, 384-well format
Experimental: Cellular Functional Assays: Internalization of Sphinqosine-1-phosphate Receptor 1 (S1P1) in a Human Cell Line (U2OS) in a 384-Well Format Using a Cell Imaging Analysis.
The S1P1 internalization assay was performed in 384 well plates (Corning 384 black with clear bottom 3712) using S1P1-U2OS cells from BioImage (C039A), a human epithelial cell line (Human Bone Osteosarcoma Epithelial Cells). These cells expressed the human S1P1 Receptor fused to the green fluorescent protein (EGFP). A standard CMV promoter (cytomegalovirus promoter) controls the expression of S1P1-EGFP and continuous expression was maintained by addition of geneticin to the culture medium.
S1P1 Receptor desensitization induced the internalization of the membrane-localized S1P-EGFP fusion protein to endosomes, which can be monitored by cell imaging analysis.
The cells are plated in low serum medium (Dulbecco's Modified Eagle Medium (DMEM) with Glutamax-1 and high glucose, 1% Penicillin/Streptomycin, 1% Fetal Calf Serum (FCS), 0.5 mg/ml Geneticin) overnight.
The next day, S1P1-U2OS cells are incubated in 20 μl serum free medium (DMEM with Glutamax-1 and high glucose, 0.1% of fatty-acid free Bovin Serum Albumin (BSA), 10 mM, N′-2-Hydroxyethylpiperazine-N′-2 ethanesulphonic acid (HEPES) 1M) for 2 hours at 37° C./5% CO2. The cells are then treated with 4 μl compounds/agonists (6×/3% DMSO) for a total volume of 24 μl, and plates are incubated for 1 hour at 37° C./5% CO2.
S1P1-U2OS cells are fixed with 25 μl Paraformaldehyde 8% and stained with Hoechst 33345 dye (1:1000) for 20 minutes.
They were then washed 3 times with Phosphate Buffered Saline (PBS) and plates are sealed. The internalization of the receptor S1P1-EGFP is measured on Cellomics by calculating the “spot count per object” (“object” corresponds to nuclear and “spot” corresponds to S1P1-EGFP receptor). Internalization data were observed thanks to vHCS View and analyzed using Genedata® software.
Target sequence in this assay (P21453 whole entry): as the sequence (P21453 whole entry, species assumed) above

S1P3 = S1P3 (Homo sapiens, UniProt Q99500); assay: Receptor binding assay, [33P]sphingosine 1-phosphate competition, membranes of CHO cells expressing S1P3
Chain of S1P3 (Q99500 whole entry, species assumed): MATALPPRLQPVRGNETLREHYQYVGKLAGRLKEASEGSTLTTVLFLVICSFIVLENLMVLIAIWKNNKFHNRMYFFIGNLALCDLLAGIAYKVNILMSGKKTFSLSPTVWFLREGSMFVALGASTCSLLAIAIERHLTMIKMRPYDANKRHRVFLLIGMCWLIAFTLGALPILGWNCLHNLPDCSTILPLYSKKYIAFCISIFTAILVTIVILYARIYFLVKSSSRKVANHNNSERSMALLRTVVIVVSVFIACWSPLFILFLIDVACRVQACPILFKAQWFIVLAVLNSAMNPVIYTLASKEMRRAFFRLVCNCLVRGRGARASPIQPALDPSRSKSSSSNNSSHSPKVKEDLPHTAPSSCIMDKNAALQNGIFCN
Experimental: as §1, §2, §3

[3] = 384 well plate, read-out: S1P1 Binding Ki [M] (384 well plate)
[4] = 96 well plate, read-out: S1P1 Binding Ki [M] (96 well plate)
[5] = 96 well plate, read-out: S1P3 Binding Ki [M] (96 well plate)

Ki (S1P1 [1]; [3]) [M]	EC50 (S1P1 [2]) [nM]	Ki (S1P3; 384 well plate, read-out: S1P3 Binding Ki [M] (384 well plate))	Ki (S1P1 [1]; [4]) [M]	Ki (S1P3; [5]) [M]	SMILES
4.29e-09	89.4				Cc1cc(-c2nc(-c3ccc([C@H](C)N[C@@H](C)C(=O)O)cc3)no2)ccc1-c1ccccc1C(F)(F)F (racemic) [Example 24, N-[(1S)-1-(4-{5-[2-methyl-2′-(trifluoromethyl)biphenyl-4-yl]-1,2,4-oxadiazol-3-yl}phenyl)ethyl]-L-alanine, hydrochloride salt and N-[(1R)-1-(4-{5-[2-methyl-2′-(trifluoromethyl)biphenyl-4-yl]-1,2,4-oxadiazol-3-yl}phenyl)ethyl]-D-alanine, hydrochloride salt]
2.59e-09	28.1	> 2e-05			Cc1cc(-c2nc(-c3ccc([C@H](C)N[C@H](C)C(=O)O)cc3)no2)ccc1-c1ccccc1C(F)(F)F (racemic) [Example 25, N-[(1S)-1-(4-{5-[2-methyl-2′-(trifluoromethyl)biphenyl-4-yl]-1,2,4-oxadiazol-3-yl}phenyl)ethyl]-D-alanine and N-[(1R)-1-(4-{5-[2-methyl-2′-(trifluoromethyl)biphenyl-4-yl]-1,2,4-oxadiazol-3-yl}phenyl)ethyl]-L-alanine]
			8.85e-10	2.3e-06	Cc1ccccc1-c1ccc(-c2nc(-c3ccc([C@@H](CO)N[C@H](C)C(=O)O)cc3)no2)cc1C(F)(F)F (single isomer, unassigned) [Example 99, hydrochloride salt]
			1.09e-09	2.45e-06	Cc1ccccc1-c1ccc(-c2nc(-c3ccc([C@H](CO)N[C@H](C)C(=O)O)cc3)no2)cc1C(F)(F)F (single isomer, unassigned) [Example 100, hydrochloride salt]
1.94e-08	187				CC[C@H](N[C@H](C)c1ccc(-c2noc(-c3ccc(-c4ccccc4C)c(C(F)(F)F)c3)n2)cc1)C(=O)O [Example 10, (2S)-2-{[(1R)-1-(4-{5-[2′-methyl-2-(trifluoromethyl)biphenyl-4-yl]-1,2,4-oxadiazol-3-yl}phenyl)ethyl]amino}butanoic acid, hydrochloride salt]
1.38e-08	5170				Cc1cc(-c2nc(-c3cccc(C(C)N(C)[C@@H](C)C(=O)O)c3)no2)ccc1-c1ccccc1C(F)(F)F (stereo partly shown) [Example 28, N-methyl-N-[1-(3-{5-[2-methyl-2′-(trifluoromethyl)biphenyl-4-yl]-1,2,4-oxadiazol-3-yl}phenyl)ethyl]alanine, hydrochloride salt]
1.43e-08	410				Cc1cc(-c2nc(-c3cccc(C(C)N(C)CC(=O)O)c3)no2)ccc1-c1ccccc1C(F)(F)F (stereo not shown) [Example 30, N-methyl-N-[1-(3-{5-[2-methyl-2′-(trifluoromethyl)biphenyl-4-yl]-1,2,4-oxadiazol-3-yl}phenyl)ethyl]glycine, hydrochloride salt]
5.77e-09	91				Cc1cc(-c2nc(-c3ccc([C@H](C)N(C)CC(=O)O)cc3)no2)ccc1-c1ccccc1C(F)(F)F [Example 33, N-methyl-N-[(1S)-1-(4-{5-[2-methyl-2′-(trifluoromethyl)biphenyl-4-yl]-1,2,4-oxadiazol-3-yl}phenyl)ethyl]glycine, hydrochloride salt]
6.14e-09	211				Cc1cc(-c2nc(-c3ccc([C@@H](C)N(C)CC(=O)O)cc3)no2)ccc1-c1ccccc1C(F)(F)F [Example 35, N-methyl-N-[(1R)-1-(4-{5-[2-methyl-2′-(trifluoromethyl)biphenyl-4-yl]-1,2,4-oxadiazol-3-yl}phenyl)ethyl]glycine, hydrochloride salt]
7.52e-09	29.8				COCC(c1ccc(-c2noc(-c3ccc(-c4ccccc4C)c(C(F)(F)F)c3)n2)cc1)N(C)CC(=O)O (stereo not shown) [Example 51, 2-((2-methoxy-1-(4-(5-(2′-methyl-2-(trifluoromethyl)biphenyl-4-yl)-1,2,4-oxadiazol-3-yl)phenyl)ethyl)(methyl)amino)acetic acid]
3.81e-09	73.3				CCCC(NCc1ccc(-c2noc(-c3ccc(-c4ccccc4C)c(C(F)(F)F)c3)n2)cc1)C(=O)O (stereo not shown) [Example 62]
8.53e-09	106				Cc1ccccc1-c1ccc(-c2nc(-c3ccc(CN(C)C(C(=O)O)C(C)O)cc3)no2)cc1C(F)(F)F (stereo not shown) [Example 74]
1.5e-08	133				COCC(NCc1cccc(-c2noc(-c3ccc(-c4ccccc4C)c(C(F)(F)F)c3)n2)c1)C(=O)O (stereo not shown) [Example 76, 3-Methoxy-2-{3-[5-(2′-methyl-2-trifluoromethyl-biphenyl-4-yl)-[1,2,4]oxadiazol-3-yl]-benzylamino}-propionic acid]
5.47e-09	39.9				Cc1ccccc1-c1ccc(-c2nc(-c3cccc(CNC(C(=O)O)C(C)O)c3)no2)cc1C(F)(F)F (stereo not shown) [Example 77]
3.56e-09	75.5				Cc1ccccc1-c1ccc(-c2nc(-c3cccc(CN(C)C(C)(C)C(=O)O)c3)no2)cc1C(F)(F)F [Example 83, 2-Methyl-2-(methyl-{3-[5-(2′-methyl-2-trifluoromethyl-biphenyl-4-yl)-[1,2,4]oxadiazol-3-yl]-benzyl}-amino)-propionic acid]
4.25e-09	84.6				Cc1ccccc1-c1ccc(-c2nc(-c3cccc(CN(C)C(C)(CO)C(=O)O)c3)no2)cc1C(F)(F)F (stereo not shown) [Example 84]
2.85e-09	69.7				CCN(Cc1cccc(-c2noc(-c3ccc(-c4ccccc4C)c(C(F)(F)F)c3)n2)c1)C(C)(C)C(=O)O [Example 88, 2-(Ethyl-{3-[5-(2′-methyl-2-trifluoromethyl-biphenyl-4-yl)-[1,2,4]oxadiazol-3-yl]-benzyl}-amino)-2-methyl-propionic acid]
			7.8e-10	4.8e-07	COCc1cc(-c2nc(-c3ccc([C@@H](C)N(C)CC(=O)O)cc3)no2)ccc1-c1ccccc1C [Example 97, N-[(1R)-1-(4-{5-[2-(methoxymethyl)-2′-methylbiphenyl-4-yl]-1,2,4-oxadiazol-3-yl}phenyl)ethyl]-N-methylglycine, hydrochloride salt]
			6.2e-10	≥ 2e-05	COCc1cc(-c2nc(-c3ccc([C@H](C)N(C)CC(=O)O)cc3)no2)ccc1-c1ccccc1C [Example 98, N-[(1S)-1-(4-{5-[2-(methoxymethyl)-2′-methylbiphenyl-4-yl]-1,2,4-oxadiazol-3-yl}phenyl)ethyl]-N-methylglycine, hydrochloride salt]
			4.05e-10	1.45e-06	Cc1ccccc1-c1ccc(-c2nc(-c3ccc([C@@H](C)N)cc3)no2)cc1C(F)(F)F [Example M1]
			5.6e-10	2.4e-08	CNCc1cccc(-c2noc(-c3ccc(-c4ccccc4C)c(C(F)(F)F)c3)n2)c1 [Example M2]
